Values quoted from earlier work, collected in patent publication US20120195848A1, “STRONTIUM-CONTAINING BIOACTIVE BONE CEMENT” (The University of Hong Kong, priority 2011, published 2012).
Like-named read-outs stand apart in the source and are kept apart here.

O=S(=O)([O-])[O-].[Sr+2] [SrSO4, strontium sulfate]
dissolution rate (25° C.): 0.0135 g/100 mL

O=C([O-])[O-].[Sr+2] [SrCO3, strontium carbonate]
dissolution rate (18° C.): 0.0011 g/100 ml

O=S(=O)([O-])[O-].[Ba+2] [BaSO4, reference compound]
dissolution rate (20° C.): 0.0002448 g/100 mL
